Entries after “also recorded” stand apart in the source; their conditions may differ. Where a SMILES comes first, the peptide text is derived from it. Bridges are numbered along the chain shown (N, C = ends). [ ]: non-standard residue; d: D form. The star is where a group is joined. S5 = C=CCCC[C@](C)(N)C(=O)O; Nle = CCCC[C@H](N)C(=O)O; Cbz = O=C(OCc1ccccc1)*; CH2F = FC*
B1: TRAIL: death receptor agonist, extrinsic pathway activator (protein, UniProt P50591 1-281, looked up)
Tumor necrosis factor ligand …: MAMMEVQGGPSLGQTCVLIVIFTVLLQSLCVAVTYVYFTNELKQMQDKYSKSGIACFLKEDDSYWDPNDEESMNSPCWQVKWQLRQLVRKMILRTSEETISTVQEKQQNISPLVRERGPQRVAAHITGTRGRSNTLSSPNSKNEKALGRKINSWESSRSGHSFLSNLHLRNGELVIHEKGFYYIYSQTYFRFQEEIKENTKNDKQMVQYIYKYTSYPDPILLMKSARNSCWSKDAEYGLYSIYQGGIFELKENDRIFVSVTNEHLIDMDHEASFFGAFLVG
B2: FasL: death receptor agonist, extrinsic pathway activator (protein, UniProt P48023 130-281, looked up)
Tumor necrosis factor ligand …: QIGHPSPPPEKKELRKVAHLTGKSNSRSMPLEWEDTYGIVLLSGVKYKKGGLVINETGLYFVYSKVYFRGQSCNNLPLSHKVYMRNSKYPQDLVMMEGKMMSYCTTGQMWARSSYLGAVFNLTSADHLYVNVSELSLVNFEESQTFFGLYKL

Key:
[1] = tested on: MCL-1ΔNΔC, BCL-2ΔC, BCL-XLΔC, BCL-wΔC and BFL-1/A1ΔC; experiment: FPA selectivity across panel of anti-apoptotic proteins; format: binding; settings: FPA against anti-apoptotic panel
Method: (§1) Binding assays were performed as previously described (Pitter et al., Methods Enzymol 446, 387 (2008). Briefly, FITC-SAHB (50 nM) was added to serial dilutions of FPLC-purified recombinant protein in binding buffer (50 mM Tris, 100 mM NaCl, pH 8.0). For competition assays, serial dilutions of acetylated MCL-1 SAHBs were mixed with FITC-BAK SAHB (25 nM), followed by addition of MCL-1ΔNΔC (100 nM) diluted in binding buffer (50 mM Tris, 100 mM NaCl, pH 8.0). Multiwell plates were incubated in the dark at room temperature until equilibrium was reached and fluorescence polarization (mP units) was measured by microplate reader (SpectraMax, Molecular Devices). For direct binding experiments, dissociation constants (KD) were calculated by nonlinear regression analysis of dose-response curves using Prism software (Graphpad). For competition experiments, Ki values were determined by nonlinear regression analysis of dose-response curves using a one-site competition model.
(§2) Compounds that bound MCL-1 with high affinity were analyzed for MCL-1 selectivity by measuring SAHB affinities for recombinant BCL-XLΔC, BCL-WΔC and BFL-1/A1ΔC (FIG. 8B). Recombinant carboxy-terminal deleted anti-apoptotic proteins were expressed using the pGEX-4T vector, and purified as described for rMCL-1. The purified proteins were incubated with FITC-SAHBs, and binding affinities were analyzed by fluorescence polarization assay as described above. […] Optionally, design and optimization of tailored SAHB compounds for anti-apoptotic targeting also employed computational modeling.
After the experiments set forth above, further members of the library of stabilized alpha-helices of BCL-2 domains (SAHBs) modeled after the BH3 domains of BCL-2 family proteins were generated in order to identify potent and selective inhibitors of MCL-1. The native alpha-helical structure of BH3 domains was reinforced by incorporating non-natural amino acids containing olefin tethers at the (i, i+4) positions of the non-interacting face, followed by ruthenium catalyzed olefin metathesis to yield a panel of stapled BH3 domains (FIG. 7). Fluorescence polarization assays (FPA) were performed to measure the binding affinity of fluorescently labeled SAHBs for recombinant human MCL-1ΔNΔC (amino acids 172-320), a deletion construct that contains the BH3-binding pocket and affords enhanced expression, purity, and stability. […] To identify MCL-1-selective SAHBs, we first screened for recombinant BCL-XLΔC binding, which eliminated PUMA, BID, BIM, BOK, BAX, and BAK SAHBs and then for recombinant BFL1/A1ΔC binding, which eliminated NOXA SAHB.

[2] = target: recombinant BCL-XLΔC (Homo sapiens, UniProt Q07817); experiment: Fluorescence polarization direct binding of FITC-SAHBs to BCL-XLΔC; settings: FPA
Method: as §1
as §2, with “Recombinant” for “Compounds that bound MCL-1 with high affinity were analyzed for MCL-1 selectivity by measuring SAHB affinities for recombinant BCL-XLΔC, BCL-WΔC and BFL-1/A1ΔC (FIG. 8B). Recombinant”

[3] = tested on: Jurkat T-cell leukemia cells; experiment: Cell viability by MTT assay, Jurkat; format: cell-based
Method: (§3) For viability testing, OPM2 and Jurkat cells (4×10^4) were treated with the indicated agents in Opti-MEM media at 37° C. in a final volume of 100 μL. Cell viability was measured at 24 hours by MTT assay, for which cells were incubated with 20 μL thiazolyl blue tetrazolium bromide (5 mg/mL in DPBS) at 37° C. for 4 hours, the precipitate solubilized with 0.1 N HCl isopropanol (100 μL), and absorbance measured at 570 nm and 650 nm.

[4] = tested on: OPM2 multiple myeloma cells; experiment: Cell viability by MTT assay, OPM2; format: cell-based; settings: MTT at 24 hours
Method: as §3, with “OPM2 multiple myeloma cells and Jurkat T-cell leukemia were passaged and maintained in RPMI 1640 medium (Invitrogen) supplemented with 10% fetal bovine serum, 100 U/mL penicillin, 100 μg/mL streptomycin, 2 mM L-glutamine, 50 mM HEPES and 50 μM β-mercaptoethanol. For” for “For”

Chain of recombinant BCL-XLΔC (Q07817 1-209, stated change not applied): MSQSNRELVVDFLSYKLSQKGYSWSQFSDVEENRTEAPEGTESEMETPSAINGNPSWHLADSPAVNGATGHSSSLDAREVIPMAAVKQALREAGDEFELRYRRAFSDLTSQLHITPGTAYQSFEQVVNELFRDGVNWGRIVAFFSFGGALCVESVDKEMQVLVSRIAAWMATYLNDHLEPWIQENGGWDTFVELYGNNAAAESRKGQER

| Molecule | binding selectivity among anti-apoptotic proteins [1] | BCL-XL binding [2] | further results |
| --- | --- | --- | --- |
| CC[C@H](C)[C@@H]1NC(=O)[C@@](C)(NC(=O)[C@H](C)NC(=O)[C@H](CC(C)C)NC(=O)[C@H](CCC(N)=O)NC(=O)[C@H](CCCNC(=N)N)NC(=O)CNC(=O)[C@@H](NC(=O)[C@@H](N)CCC(N)=O)C(C)C)CCCC=CCCC[C@@](C)(C(=O)N[C@H](C(=O)N[C@@H](CC(N)=O)C(=O)N[C@@H](CCCNC(=N)N)C(=O)N[C@@H](CCCNC(=N)N)C(=O)N[C@@H](Cc2ccc(O)cc2)C(=O)N[C@@H](CC(=O)O)C(N)=O)[C@@H](C)CC)NC(=O)[C@H](CC(=O)O)NC(=O)CNC1=O [BAK SAHB] (H-QVGRQLA[S5]IGD[S5]INRRYD-NH2; staple 8-12; C-terminus assumed) | high affinity pan-anti-apoptotic binders | eliminated | – |
| CCCC[C@@H]1NC(=O)[C@@](C)(NC(=O)[C@H](CCCNC(=N)N)NC(=O)[C@H](CC(C)C)NC(=O)[C@H](CCC(N)=O)NC(=O)[C@H](C)NC(=O)CNC(=O)[C@@H](NC(=O)[C@H](CCC(=O)O)NC(=O)[C@H](CCCNC(=N)N)NC(=O)[C@H](C)NC(=O)[C@H](Cc2c[nH]c3ccccc23)NC(=O)[C@@H](N)CCC(N)=O)[C@@H](C)CC)CCCC=CCCC[C@@](C)(C(=O)N[C@@H](CC(C)C)C(=O)N[C@@H](CC(N)=O)C(=O)N[C@@H](C)C(=O)N[C@@H](CCC(N)=O)C(=O)N[C@@H](Cc2ccc(O)cc2)C(N)=O)NC(=O)[C@H](CC(=O)O)NC(=O)[C@H](C)NC1=O [PUMA SAHB] (H-QWAREIGAQLR[S5][Nle]AD[S5]LNAQY-NH2; staple 12-16; C-terminus assumed) | – | eliminated | – |
| CC(NC(=O)C(NC(=O)OCc1ccccc1)C(C)C)C(=O)NC(CC(=O)O)C(=O)CF (stereo not drawn) [z-VAD, reference compound] (Cbz-Val-Ala-Asp-CH2F; configuration not given here) | – | – | effect of pan-caspase inhibitor on MCL-1 SAHBD-induced sensitization ([3]; z-VAD 50 μM with MCL-1 SAHBD plus TRAIL/FasL, Jurkat and OPM2 cells): completely abrogated the negative effects on cell viability |
| CC[C@H](C)[C@H](N)C(=O)N[C@@H](Cc1c[nH]c2ccccc12)C(=O)N[C@H](C(=O)N[C@@H](C)C(=O)N[C@@H](CCC(N)=O)C(=O)N[C@@H](CCC(=O)O)C(=O)N[C@@H](CC(C)C)C(=O)N[C@@H](CCCNC(=N)N)C(=O)N[C@@]1(C)CCCC=CCCC[C@@](C)(C(=O)N[C@@H](Cc2ccccc2)C(=O)N[C@@H](CC(N)=O)C(=O)N[C@@H](C)C(=O)N[C@@H](Cc2ccc(O)cc2)C(=O)N[C@@H](Cc2ccc(O)cc2)C(=O)N[C@@H](C)C(=O)N[C@@H](CCCNC(=N)N)C(=O)N[C@@H](CCCNC(=N)N)C(N)=O)NC(=O)[C@H](CC(=O)O)NC(=O)CNC(=O)[C@H]([C@@H](C)CC)NC1=O)[C@@H](C)CC [BIM SAHB] | pan-anti-apoptotic binder | eliminated | – |
| CC[C@H](C)[C@@H]1NC(=O)[C@@](C)(NC(=O)[C@H](CCCCN)NC(=O)[C@H](CC(C)C)NC(=O)[C@H](CO)NC(=O)[C@H](CCC(=O)O)NC(=O)[C@H](CO)NC(=O)[C@H](CC(C)C)NC(=O)[C@H](CCCCN)NC(=O)[C@H](CCCCN)NC(=O)[C@@H](NC(=O)[C@H](CO)NC(=O)[C@H](C)N)[C@@H](C)O)CCCC=CCCC[C@@](C)(C(=O)N[C@@H](CC(C)C)C(=O)N[C@@H](CC(=O)O)C(=O)N[C@@H](CO)C(=O)N[C@@H](CC(N)=O)C(N)=O)NC(=O)[C@H](CC(=O)O)NC(=O)CNC1=O [BAX SAHB] (H-ASTKKLSESLK[S5]IGD[S5]LDSN-NH2; staple 12-16; C-terminus assumed) | – | eliminated | – |
| CCCC[C@H](NC(=O)[C@H](CCC(=O)O)NC(=O)[C@H](CC(C)C)NC(=O)[C@]1(C)CCCC=CCCC[C@](C)(NC(=O)[C@H](CC(C)C)NC(=O)[C@H](CC(C)C)NC(=O)[C@@H](NC(=O)[C@H](C)NC(=O)[C@H](CO)NC(=O)[C@@H](NC(=O)[C@H](CCC(=O)O)NC(=O)[C@H](C)NC(=O)[C@H](CC(C)C)NC(=O)[C@@H](N)CCCNC(=N)N)C(C)C)C(C)C)C(=O)N[C@@H](CC(C)C)C(=O)NCC(=O)N[C@@H](CC(=O)O)C(=O)N1)C(=O)N[C@H](C(=O)N[C@@H](CCCNC(=N)N)C(N)=O)[C@@H](C)CC [BOK SAHB] (H-RLAEVSAVLL[S5]LGD[S5]LE[Nle]IR-NH2; staple 11-15; C-terminus assumed) | significant preference for MCL-1 over the other anti-apoptotics | eliminated | – |
| CCCC[C@H](NC(=O)[C@]1(C)CCCC=CCCC[C@](C)(NC(=O)[C@H](C)NC(=O)[C@H](CC(C)C)NC(=O)[C@H](Cc2c[nH]cn2)NC(=O)[C@H](CCCNC(=N)N)NC(=O)[C@H](C)NC(=O)[C@@H](NC(=O)[C@H](CC(N)=O)NC(=O)[C@H](CCCNC(=N)N)NC(=O)[C@@H](NC(=O)[C@@H](NC(=O)[C@@H](N)CC(=O)O)[C@@H](C)CC)[C@@H](C)CC)[C@@H](C)CC)C(=O)N[C@@H](C(C)C)C(=O)NCC(=O)N[C@@H](CC(=O)O)C(=O)N1)C(=O)N[C@@H](CC(=O)O)C(=O)N[C@@H](CCCNC(=N)N)C(=O)N[C@@H](CO)C(=O)N[C@H](C(=O)N[C@@H](CCCNC(=N)N)C(=O)N[C@@H](CCCNC(=N)N)C(N)=O)[C@@H](C)CC [BID SAHB] (H-DIIRNIARHLA[S5]VGD[S5][Nle]DRSIRR-NH2; staple 12-16; C-terminus assumed) | – | eliminated | – |
| LEVESXTQLXRFGDKLNFRQKL [NOXA SAHBB] | binds MCL-1ΔNΔC exclusively; also recorded: potent and exclusive MCL-1ΔNΔC binding activity | – | sensitization of Jurkat cells to FasL ([3]; combined with low dose FasL, MTT at 24 hours): behaved identically to MCL-1 SAHBD; also recorded: sensitized the apoptotic response of Jurkat cells to TRAIL and FasL; sensitization of Jurkat cells to TRAIL ([3]; combined with low dose TRAIL, MTT at 24 hours): behaved identically to MCL-1 SAHBD; also recorded: sensitized the apoptotic response of Jurkat cells to TRAIL and FasL |
| B1 | – | – | OPM2 cell viability, single agent [4]: sensitive to TRAIL; also recorded: induced apoptosis; Jurkat cell viability, single agent ([3]; MTT at 24 hours): dose-responsive cytotoxicity; also recorded: induced apoptosis |
| B2 | – | – | OPM2 cell viability, single agent [4]: sensitive to TRAIL but not FasL; also recorded: only Jurkat cells were sensitive to FasL; Jurkat cell viability, single agent ([3]; MTT at 24 hours): dose-responsive cytotoxicity; also recorded: only Jurkat cells were sensitive to FasL |

From US9079970B2, “Methods and compositions for specific modulation of MCL-1” (Dana Farber Cancer Institute, Inc., priority 2008, dated 2015)
